These cell lines were tested with CC(C)(C)c1cc(NC(=O)Nc2ccc(-c3cn4c(n3)sc3cc(OCCN5CCOCC5)ccc34)cc2)no1 [Quizartinib] + C[C@]1(O)C[C@@H](c2nc(-c3ccc4ccc(-c5ccccc5)nc4c3)c3c(N)nccn32)C1 [Linsitinib] (partner 1 µM) (assay: relative viability (nuclei count vs DMSO), 5 days (fraction); higher = more cells survive). Details: first compound 0.001 µM.
Procedure, shortened: (§1)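 Lung cancer cell lines were seeded in 1536-well plates and dosed by pin tool the next day, with either a single drug or a fixed anchor-drug dose combined with five library-drug doses (not always all listed) spaced in √10 steps. Five days later, one step fixed the cells and stained their nuclei (final 0.05% Triton X-100, 1% formaldehyde, 1 ug/ml Hoechst), and nuclei were counted on 4× images. Relative viability is the nuclei count in treated wells divided by the count in vehicle wells, and each value is the median of duplicate plates.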
Work on COR-L23 yielded a relative viability of 0.829. With NCI-H2085 the relative viability was 0.866. NCI-H460 showed a relative viability of 0.583. BEN showed a relative viability of 0.739. With PC-3 [JPC-3] the relative viability was 0.853. LC-2-ad showed a relative viability of 0.77.

Same assay, conditions: first compound 0.003162 µM
COR-L23 showed a relative viability of 0.9. Work on NCI-H2085 yielded a relative viability of 0.844. NCI-H460 was tested, and the relative viability was 0.572. BEN gave a relative viability of 0.779. Work on PC-3 [JPC-3] yielded a relative viability of 0.951. With LC-2-ad the relative viability was 0.782.

Same assay, conditions: first compound 0.01 µM
For COR-L23, the relative viability was 1.05. In the case of NCI-H2085, the relative viability is reported as 0.973. For NCI-H460, the relative viability was 0.782. Cell Line BEN has a relative viability of 0.903. In the case of PC-3 [JPC-3], the relative viability is reported as 0.931. Cell Line LC-2-ad has a relative viability of 0.909.

Same assay, conditions: first compound 0.03162 µM
In the case of COR-L23, the relative viability is reported as 0.748. For NCI-H2085, the relative viability was 0.907. BEN gave a relative viability of 0.815. For PC-3 [JPC-3], the relative viability was 0.988. In the case of LC-2-ad, the relative viability is reported as 0.76.

Same assay, conditions: first compound 0.1 µM
COR-L23 showed a relative viability of 0.92. For NCI-H2085, the relative viability was 0.948. NCI-H460 showed a relative viability of 0.708. BEN was tested, and the relative viability was 0.712. For PC-3 [JPC-3], the relative viability was 0.933. Work on LC-2-ad yielded a relative viability of 0.605.

The cell lines below were run with CC(C)(C)c1cc(NC(=O)Nc2ccc(-c3cn4c(n3)sc3cc(OCCN5CCOCC5)ccc34)cc2)no1 [Quizartinib] + CS(=O)(=O)CCNCc1ccc(-c2ccc3ncnc(Nc4ccc(OCc5cccc(F)c5)c(Cl)c4)c3c2)o1 [Lapatinib] (partner 2 µM) in the same assay as above. Details: first compound 0.001 µM.
Procedure, shortened: as §1
Cell Line COR-L23 has a relative viability of 1.03. NCI-H2085 showed a relative viability of 0.733. With NCI-H460 the relative viability was 0.924. With BEN the relative viability was 0.473. For PC-3 [JPC-3], the relative viability was 0.416. With LC-2-ad the relative viability was 0.791.

Same assay, conditions: first compound 0.003162 µM
Work on COR-L23 yielded a relative viability of 0.856. In the case of NCI-H2085, the relative viability is reported as 0.769. Cell Line NCI-H460 has a relative viability of 1.03. BEN showed a relative viability of 0.661. Cell Line PC-3 [JPC-3] has a relative viability of 0.472. Work on LC-2-ad yielded a relative viability of 0.883.

Same assay, conditions: first compound 0.01 µM
In the case of COR-L23, the relative viability is reported as 1.14. Work on NCI-H2085 yielded a relative viability of 0.851. Cell Line NCI-H460 has a relative viability of 1.26. In the case of BEN, the relative viability is reported as 0.579. With PC-3 [JPC-3] the relative viability was 0.471. Work on LC-2-ad yielded a relative viability of 0.724.

Same assay, conditions: first compound 0.03162 µM
In the case of COR-L23, the relative viability is reported as 0.613. NCI-H2085 was tested, and the relative viability was 0.809. BEN showed a relative viability of 0.667. Work on PC-3 [JPC-3] yielded a relative viability of 0.481. LC-2-ad gave a relative viability of 0.839.

Same assay, conditions: first compound 0.1 µM
COR-L23 showed a relative viability of 0.928. With NCI-H2085 the relative viability was 0.742. With NCI-H460 the relative viability was 0.205. In the case of BEN, the relative viability is reported as 0.747. PC-3 [JPC-3] was tested, and the relative viability was 0.415. With LC-2-ad the relative viability was 0.607.

The cell lines below were run with COCC[n+]1c2c(n(Cc3cnccn3)c1C)C(=O)c1ccccc1C2=O [YM155] + COc1cccc2cc(-c3nc([C@H]4CC[C@H](C(=O)O)CC4)n4ncnc(N)c34)[nH]c12 [OSI-027] (partner 0.5 µM) in the same assay as above. Details: first compound 0.002 µM.
Procedure, shortened: as §1
In the case of COR-L23, the relative viability is reported as 0.692. NCI-H2085 gave a relative viability of 0.742. For NCI-H460, the relative viability was 0.584. For BEN, the relative viability was 0.268. Cell Line PC-3 [JPC-3] has a relative viability of 0.784. Work on LC-2-ad yielded a relative viability of 0.804.

Same assay, conditions: first compound 0.006325 µM
COR-L23 gave a relative viability of 0.735. NCI-H2085 showed a relative viability of 0.783. With NCI-H460 the relative viability was 0.769. Cell Line BEN has a relative viability of 0.311. Cell Line PC-3 [JPC-3] has a relative viability of 0.783. LC-2-ad showed a relative viability of 0.917.

Same assay, conditions: first compound 0.02 µM
Work on COR-L23 yielded a relative viability of 0.488. Work on NCI-H2085 yielded a relative viability of 0.809. With NCI-H460 the relative viability was 0.757. BEN gave a relative viability of 0.304. For PC-3 [JPC-3], the relative viability was 0.808. In the case of LC-2-ad, the relative viability is reported as 0.773.

Same assay, conditions: first compound 0.06325 µM
COR-L23 gave a relative viability of 0.132. NCI-H2085 showed a relative viability of 0.421. With NCI-H460 the relative viability was 0.694. Cell Line BEN has a relative viability of 0.29. PC-3 [JPC-3] showed a relative viability of 0.809. For LC-2-ad, the relative viability was 0.621.

These cell lines were tested with CC(C)(C)c1cc(NC(=O)Nc2ccc(-c3cn4c(n3)sc3cc(OCCN5CCOCC5)ccc34)cc2)no1 [Quizartinib] + C[C@@H](Oc1cc(-c2cnn(C3CCNCC3)c2)cnc1N)c1c(Cl)ccc(F)c1Cl [Crizotinib] (partner 1 µM) in the same assay as above. Details: first compound 0.001 µM.
Procedure, shortened: as §1
COR-L23 was tested, and the relative viability was 0.573. With NCI-H2085 the relative viability was 0.745. Work on NCI-H460 yielded a relative viability of 0.708. For BEN, the relative viability was 0.819. Work on PC-3 [JPC-3] yielded a relative viability of 0.978. Cell Line LC-2-ad has a relative viability of 0.437.

Same assay, conditions: first compound 0.003162 µM
With COR-L23 the relative viability was 0.538. Work on NCI-H2085 yielded a relative viability of 0.795. Work on NCI-H460 yielded a relative viability of 0.842. BEN gave a relative viability of 0.769. PC-3 [JPC-3] gave a relative viability of 0.961. Cell Line LC-2-ad has a relative viability of 0.514.

Same assay, conditions: first compound 0.01 µM
COR-L23 gave a relative viability of 0.753. For NCI-H2085, the relative viability was 0.998. NCI-H460 was tested, and the relative viability was 1.02. In the case of BEN, the relative viability is reported as 0.766. Cell Line PC-3 [JPC-3] has a relative viability of 1.01. LC-2-ad showed a relative viability of 0.583.

Same assay, conditions: first compound 0.03162 µM
For COR-L23, the relative viability was 0.51. In the case of NCI-H2085, the relative viability is reported as 0.833. BEN showed a relative viability of 0.722. Work on PC-3 [JPC-3] yielded a relative viability of 0.955. LC-2-ad gave a relative viability of 0.469.

Same assay, conditions: first compound 0.1 µM
Cell Line COR-L23 has a relative viability of 0.67. NCI-H2085 showed a relative viability of 0.836. Cell Line NCI-H460 has a relative viability of 0.416. For BEN, the relative viability was 0.73. With PC-3 [JPC-3] the relative viability was 0.955. LC-2-ad gave a relative viability of 0.362.
